Patent US20220047527A1, “FOOD-AND-DRINK COMPOSITION CONTAINING ASTAXANTHIN” (AstaReal Co., Ltd., priority 2016, published 2022)

Assays:
[1] = as high as that of vitamin E; cited from earlier work
[2] = system: human having a sense of fatigue; test: Continuous calculation task (Uchida-Kraepelin test), task performance with a mental load; assay type: in vivo; settings: after 8-week ingestion, vs control group (FIG. 18)
Description: A mental load was applied to each subject by a continuous calculation task with the Uchida-Kraepelin test (Nisseiken Inc., Japan) consisting of two sessions of a 15-min serial addition task (total 30 min), with a 5-min rest period between the first and second sessions. Specifically, the subjects were instructed to sequentially add two adjoining single-digit numbers (combination of 3, 4, 5, 6, 7, 8, and 9), record only the last digit (one's place) of the sum, spend only 1 min on each line, and then quickly move on to the next line of numbers for calculation. This task was continued for 15 min in each session. After the completion of the task, the number of calculations and the number of wrong answers were counted to calculate the percentage of correct answers, and the results for the first session were subtracted from those for the second session to determine change in task performance in the second session, which was used as the task performance with a mental load.

[3] = system: salivary cortisol; test: Measurement of salivary cortisol (CLIA); assay type: in vivo, human; settings: for salivary cortisol concentration: after 8-week ingestion
Text: (§1) Salivary cortisol, which was examined as a biochemical index for a mental load, is used as a stress marker because of simplicity of measurement due to the high correlation with blood cortisol, and known to be increased by an acute mental stress, for example, caused at making a speech in front of others or doing mental calculation or by continuous, high-intensity exercise. Because the salivary cortisol concentration is known to show circadian variation, being high in the morning and then declining as the night approaches, mental load application (calculation load; Uchida-Kraepelin test) was performed in the morning in this study. Salivary secretory immunoglobulin A (sIgA) is an antibody produced by B cells that inhibits the proliferation of pathogens on the mucosa of the oral cavity, airway, intestines, and other organs. It is known that reduction of sIgA in saliva is associated with the development of upper respiratory tract infection and that salivary sIgA concentration decreases under chronic stress and increases in a relaxed state.
Prior to saliva sampling, the subjects were instructed to brush their teeth and place a cotton swab (Salivette) in the mouth for 2 minutes without chewing to thoroughly soak the cotton swab with saliva. Saliva samples were collected twice, in the morning of the day of assessment (before load application) and after mental load application (calculation load; Uchida-Kraepelin test). Salivary cortisol concentration was measured with a competitive chemiluminescent immunoassay (CLIA) kit (Chemilumi ACS-E Cortisol II; Siemens Healthcare Diagnostics Inc.).

[4] = system: salivary secretory immunoglobulin A (sIgA); test: Measurement of salivary secretory immunoglobulin A (EIA); assay type: in vivo, human
Text: as §1
Saliva samples were collected from the subjects in the morning of the day of assessment (before load application) in the same manner as in (1) of [5-2]. The sIgA concentration in each saliva sample was measured with an enzyme immunoassay (EIA) kit (EIA s-IgA Test Kit, Medical & Biological Laboratories Co., Ltd.).

[5] = system: human having a sense of fatigue; test: Cycling task on a bicycle ergometer, task performance with a physical load; assay type: in vivo; settings: between the groups (FIG. 19)
Description: A physical load was applied by a cycling task on a bicycle ergometer. Specifically, the subjects were instructed to pedal for 30 min with a rotation rate of the pedal adjusted to maintain the heart rate at 120 to 130 HR for men and 110 to 120 HR for women. The magnitude of the load was set at a constant level of 80 W for men and 70 W for women. The distance cycled (km) in 30 min was measured, which was used as the task performance with a physical load.

[6] = Study 2: temporal change of human blood (plasma) astaxanthin level on long-term ingestion; assay type: in vivo
Description: This study is a study in humans to confirm how the blood (plasma) astaxanthin level changes through long-term ingestion of astaxanthin. While the blood (serum) astaxanthin level was measured at the completion of ingestion (after 12-week ingestion) in Study 1, Study 2 is, specifically, a study in humans to confirm how the blood (plasma) astaxanthin level behaves in the case that the period of ingestion is shorter than 12 weeks.
Ten healthy Japanese men and women at age of 20 years or older and younger than 50 years
Each subject ingested two capsules per day, each capsule containing 60 mg (6 mg in terms of the free form of astaxanthin) of Haematococcus algae extract and 270 mg of edible fat and oil, with water 30 minutes after breakfast (12 mg/day in terms of the free form of astaxanthin) for 42 days.
Blood sampling was performed one day, six days, 13 days, 20 days, 27 days, 34 days, and 42 days after the initiation of ingestion of the capsules to obtain the plasma. The plasma astaxanthin level was measured by using the method in [5-4] in Study 1 with HPLC.

[7] = 2 capsules/day (12 mg/day free form) for 42 days (FIG. 20)

For CC1=C(/C=C/C(C)=C/C=C/C(C)=C/C=C/C=C(C)/C=C/C=C(C)/C=C/C2=C(C)C(=O)C(O)CC2(C)C)C(C)(C)CC(O)C1=O (stereo not drawn) [astaxanthin, 3,3′-dihydroxy-β,β-carotene-4,4′-dione], the “antioxidative effect relative to vitamin E” value [1] is given as 1000 times, the “change in the number of wrong answers in the second session, continuous calculation task” value [2] is given as “significant improvement” and the “percentage of correct answers in the second session, continuous calculation task” value [2] is given as “significant improvement”. For the same compound, the “salivary cortisol concentration after vs before mental load application” value ([3]; after 4-week ingestion (FIG. 7)) was “significantly lower”, the salivary cortisol concentration ([3]; after mental load application) was 0.38 ± 0.03 µg/dL and the salivary cortisol concentration ([3]; before mental load application) was 0.44 ± 0.03 µg/dL. The “salivary sIgA concentration” value ([4]; after 8-week ingestion) was 41.9 ± 5.5 µg/mL, the “salivary sIgA concentration” value ([4]; at pre-ingestion (before load application), astaxanthin group) was 46.5 ± 8.2 µg/mL and the “change in salivary sIgA concentration” value ([4]; until week 8 of ingestion vs pre-ingestion (FIG. 8)) was “no significant change”. The cycling distance ([5]; after 4-week ingestion) was “no significant difference”, the cycling distance ([5]; after 8-week ingestion) was “no significant difference” and the “human blood (plasma) astaxanthin level at plateau” value [6, 7] was “approximately 200 ng/mL”. The “time after initiation of ingestion at which plasma astaxanthin level plateaued” value [6, 7] was “about six” and the “human blood (plasma) astaxanthin level during continued ingestion” value ([6]; as long as ingestion of astaxanthin-containing food was continued) was “not lowered”.
